According to US7943551B2, “3-cyclopropyl-4-(3-thiobenzoyl) pyrazoles and their use as herbicides” (Bayer Cropscience AG, priority 2007, dated 2011):

Key:
Type in all cases: in vivo
Veronica persica [1] = assay: Post-emergence herbicidal action; conditions: 20 g of a.i./ha, read-out: Herbicidal activity in % against VERPE
Protocol: (§1) Seeds of mono- and dicotyledonous harmful plants are placed in sandy loam in cardboard pots, covered with soil and grown in the greenhouse under good growth conditions. Two to three weeks after sowing, the test plants are treated at the three-leaf stage. The compounds according to the invention, which are formulated as wettable powders or as emulsion concentrates, are sprayed at an application rate of 600 to 800 l of water/ha (converted) in a dosage of 80 grams per hectare onto the surface of the green plant parts. The visual scoring of the damage to the harmful plants is carried out 3-4 weeks after the treatment. Here, the compounds of Nos. 1-39, 1-40, 1-1382 and 1-2091 show an activity of at least 90% against Echinochloa crus galli. The compounds of Nos. 1-3, 1-44 and 1-2091 shown an activity of at least 90% against Abutilon theophrasti. The compounds of Nos. 1-39, 1-40 and 1-1382 show an activity of at least 90% against Veronica persica. The compounds of Nos. 1-3, 1-38, 1-39, 1-1406 and 1-1407 show an activity of at least 90% against Stellaria media.
(§2) The comparative tests of Tables 1 to 24 below show the superiority of the compounds according to the invention over the compounds known from the prior art.
(§3) • ABUTH Abutilon theophrasti ALOMY Alopecurus myosuroides • AMARE Amaranthus retroflexus AVEFA Avena fatua • CHEAL Chenopodium album ECHCG Echinochloa crus galli • GALAP Galium aparine LOLMU Lolium multiflorum • MATIN Matricaria inodora PHBPU Pharbitis purpureum • POLCO Fallopia convolvulus STEME Stellaria media • VERPE Veronica persica VIOTR Viola tricolor • XANST Xanthium strumarium Crop Plants • GLXMA Glycine max (soybeans) TRZAS Triticum aestivum (wheat) • ZEAMX Zea mays (corn)

Viola tricolor [2] = assay: Post-emergence herbicidal action; conditions: 20 g of a.i./ha, read-out: Herbicidal activity in % against VIOTR
Protocol: as §1, §2, §3

Galium aparine [3] = assay: Post-emergence herbicidal action; conditions: 20 g of a.i./ha
Protocol: as §1, with “The compounds according to the invention, which are formulated as wettable powders or as emulsion concentrates, are sprayed at an application rate of 600 to 800 l of water/ha (converted) in a dosage of 80 grams per hectare onto the surface of the green plant parts.” left out
as §2, §3

[4] = system: Triticum aestivum (wheat); assay: Post-emergence damage of crop plants; conditions: 20 g of a.i./ha, crop plant wheat
Protocol: as §1, with “The compounds according to the invention, which are formulated as wettable powders or as emulsion concentrates, are sprayed at an application rate of 600 to 800 l of water/ha (converted) in a dosage of 80 grams per hectare onto the surface of the green plant parts.” left out
as §2, §3

Zea mays (corn) = assay: Post-emergence damage of crop plants; conditions: 20 g of a.i./ha, crop plant corn
Protocol: as §1, with “The compounds according to the invention, which are formulated as wettable powders or as emulsion concentrates, are sprayed at an application rate of 600 to 800 l of water/ha (converted) in a dosage of 80 grams per hectare onto the surface of the green plant parts.” left out
as §2, §3

Chenopodium album = assay: Pre-emergence herbicidal action; conditions: 320 g of a.i./ha
Description: (§4) Seeds or rhizome pieces of mono- and dicotyledonous harmful plants are placed in sandy loam in pots of a diameter of 9 to 13 cm and covered with soil. The herbicides, formulated as emulsifiable concentrates or dusts, are applied to the surface of the covering soil in the form of aqueous dispersions or suspensions or emulsions at an application rate of 300 to 800 l of water/ha (converted), at a dosage of 320 grams per hectare. For further cultivation of the plants, the pots are then kept in a greenhouse under optimum conditions. The visual scoring of the damage to the harmful plants is carried out 3-4 weeks after the treatment. Here, the compounds of Nos. 1-3, 1-15, 1-44 and 1-1407 show an activity of at least 90% against Echinochloa crus galli. The compounds of Nos. 1-15, 1-45, 1-1407 and 1-1419 show an activity of at least 90% against Abutilon theophrasti. The compounds of Nos. 1-3, 1-45, 1-1406 and 1-1418 show an activity of at least 90% against Amaranthus retroflexus. The compounds of Nos. 1-44, 1-1406, 1-1407 and 1-1419 show an activity of at least 90% against Stellaria media.
as §2, §3

Galium aparine [5] = assay: Pre-emergence herbicidal action; conditions: 320 g of a.i./ha
Description: as §4, §2, §3

Glycine max (soybeans) = assay: Pre-emergence damage of crop plants; conditions: 320 g of a.i./ha, crop plant soybeans
Description: as §4, §2, §3

[6] = system: Triticum aestivum (wheat); assay: Pre-emergence damage of crop plants; conditions: 320 g of a.i./ha, crop plant wheat
Description: as §4, §2, §3

Fallopia convolvulus [7] = assay: Pre-emergence herbicidal action; conditions: 320 g of a.i./ha
Description: as §4, §2, §3

Pharbitis purpureum [8] = assay: Pre-emergence herbicidal action; conditions: 320 g of a.i./ha
Description: as §4, §2, §3

Xanthium strumarium = assay: Pre-emergence herbicidal action; conditions: 320 g of a.i./ha
Description: as §4, §2, §3

Amaranthus retroflexus = assay: Pre-emergence herbicidal action
Description: as §4, with “at a dosage of 320 grams per hectare.” left out
as §2, §3

Stellaria media = assay: Pre-emergence herbicidal action; conditions: 80 g of a.i./ha
Description: as §4, with “at a dosage of 320 grams per hectare.” left out
as §2, §3

Veronica persica [9] = assay: Pre-emergence herbicidal action; conditions: 80 g of a.i./ha
Description: as §4, with “at a dosage of 320 grams per hectare.” left out
as §2, §3

Fallopia convolvulus [10] = assay: Post-emergence herbicidal action; conditions: 80 g of a.i./ha
Protocol: as §1, §2, §3

Pharbitis purpureum [11] = assay: Post-emergence herbicidal action; conditions: 80 g of a.i./ha
Protocol: as §1, §2, §3

Viola tricolor [12] = assay: Pre-emergence herbicidal action; conditions: 320 g of a.i./ha
Description: as §4, with “at a dosage of 320 grams per hectare.” left out
as §2, §3

Abutilon theophrasti = assay: Pre-emergence herbicidal action; conditions: 320 g of a.i./ha, visual scoring 3-4 weeks after treatment
Description: as §4, §2, §3

Matricaria inodora = assay: Pre-emergence herbicidal action; conditions: Tripleurospermum inodorum, 320 g of a.i./ha, read-out: Herbicidal activity in % against MATIN
Description: as §4, §2, §3

COCCS(=O)(=O)c1c(S(C)(=O)=O)ccc(C(=O)c2c(C3CC3)nn(C)c2O)c1C [drawing 35] was tested, and the pest or weed control at 20 g/ha (Veronica persica [1]) was 90%, the pest or weed control at 20 g/ha (Viola tricolor [2]) was 70% and the “Herbicidal activity in % against GALAP” value (Galium aparine [3]) was 50%. The “Damage to TRZAS” value [4] was 0 and the “Damage to ZEAMX” value (Zea mays (corn)) was 0.

CCS(=O)(=O)c1c(S(C)(=O)=O)ccc(C(=O)c2c(C3CC3)nn(C)c2O)c1C [drawing 38, reference compound] was tested, and the “Herbicidal activity in % CHEAL” value (Chenopodium album) was 90%, the “Herbicidal activity in % GALAP” value (Galium aparine [5]) was 90% and the “Damage to GLXMA” value (Glycine max (soybeans)) was 50. For the same compound, the “Damage to TRZAS” value [6] was 50.

Cc1c(C(=O)c2c(C3CC3)nn(C)c2O)ccc(S(C)(=O)=O)c1S(=O)(=O)CC1CC1 [drawing 15] was tested, and the “Herbicidal activity in % against POLCO” value (Fallopia convolvulus [7]) was 50%, the “Herbicidal activity in % against PHBPU” value (Pharbitis purpureum [8]) was 50% and the “Herbicidal activity in % against XANST” value (Xanthium strumarium) was 60%.

In the case of Cc1c(C(=O)c2c(C3CC3)nn(C)c2O)ccc(Cl)c1SCC1CC1 [drawing 43], the “Herbicidal activity in % against AMARE” value (Amaranthus retroflexus; 80 g of a.i./ha) was 80%, the “Herbicidal activity in % against STEME” value (Stellaria media) was 90% and the “Herbicidal activity in % against VERPE” value (Veronica persica [9]) was 70%.

For CSc1c(Cl)ccc(C(=O)c2c(C3CC3)nn(C)c2O)c1C [reference compound], the “Herbicidal activity in % against AMARE” value (Amaranthus retroflexus; 80 g of a.i./ha) was 70%, the “Herbicidal activity in % against STEME” value (Stellaria media) was 80% and the “Herbicidal activity in % against VERPE” value (Veronica persica [9]) was 50%.

For CSc1c(S(C)(=O)=O)ccc(C(=O)c2c(C3CC3)nn(C)c2O)c1C [drawing 32, reference compound], the “Herbicidal activity in % against POLCO” value (Fallopia convolvulus [10]) was 50% and the “Herbicidal activity in % against PHBPU” value (Pharbitis purpureum [11]) was 40%.

With COCCSc1c(S(C)(=O)=O)ccc(C(=O)c2c(C3CC3)nn(C)c2O)c1Cl [drawing 23] the “Herbicidal activity in % against AMARE” value (Amaranthus retroflexus; 320 g of a.i./ha, visual scoring 3-4 weeks after treatment) was 100%, the “Herbicidal activity in % against VIOTR” value (Viola tricolor [12]) was 100% and the “Herbicidal activity in % against ABUTH” value (Abutilon theophrasti) was 100%. For the same compound, the “Herbicidal activity in % against POLCO” value (Fallopia convolvulus [7]) was 50% and the pest or weed control at 320 g/ha (Matricaria inodora) was 60%.

With CCS(=O)(=O)c1c(S(C)(=O)=O)ccc(C(=O)c2c(C3CC3)nn(C)c2O)c1C [drawing 36, reference compound] the pest or weed control at 20 g/ha (Veronica persica [1]) was 20%, the pest or weed control at 20 g/ha (Viola tricolor [2]) was 20% and the “Herbicidal activity in % against GALAP” value (Galium aparine [3]) was 20%. For the same compound, the “Damage to TRZAS” value [4] was 80 and the “Damage to ZEAMX” value (Zea mays (corn)) was 10.

In the case of COCCS(=O)(=O)c1c(S(C)(=O)=O)ccc(C(=O)c2c(C3CC3)nn(C)c2O)c1C [drawing 13], the “Herbicidal activity in % against POLCO” value (Fallopia convolvulus [7]) was 60%, the “Herbicidal activity in % against PHBPU” value (Pharbitis purpureum [8]) was 60% and the “Herbicidal activity in % against XANST” value (Xanthium strumarium) was 70%.
